“Also recorded” adds a separate entry of the source.

The subject of data set [1] is aldolase. As to the kind of experiment: Aldolase activity assay. The class given is cell-based. The procedure: (§1) The activity assay was performed as per the manufacturer's instructions (Aldolase: Biovision, K665, GAPDH: Sigma, MAK277). Values were normalized to protein concentrations and fold change was calculated relative to DMSO.
The test system of a further data set is MCF10a cells. As to the kind of experiment: Extracellular flux assay (ECAR, glycolysis). The following applies: 10 μM, 24 hr. The class given is cell-based. The method, then:
(§2) The bioenergetic function of cells in response to drug treatments was determined using a Seahorse Bioscience XF96 Extracellular Flux Analyzer (Seahorse Bioscience). Cells were seeded in specialized V7 Seahorse tissue culture plates (Agilent, 102601-100) for 24 hrs. […] One hr prior to experiment, cells were washed and changed to XF Base medium (Agilent, 10353-100) adjusted to pH 7.4. For OXPHOS experiments medium was supplemented with pyruvate (1 mM), L-glutamine (2 mM) and glucose (10 mM). […] For glycolysis experiments medium was supplemented with L-glutamine (1 mM). […] For all analysis values were normalized to protein concentration before baseline measurements were subtracted. The fold change was calculated relative to DMSO.

Data set [2] deals with MDA231 cells. As to the kind of experiment: Extracellular flux assay (ECAR, glycolysis). It counts as cell-based. The following applies: MDA231, 10 μM, 24 hr. The method, then: as §2
For a further data set, the system named is 4T1 cell line. As to the kind of experiment: Extracellular flux assay (ECAR, glycolysis). The following applies: 4T1, 24 hrs. It counts as cell-based, mouse. The procedure:
as §2

A further data set has as its system MMTV-pyMT tumors. As to the kind of experiment: MMTV-pyMT genetic breast mouse model. The conditions noted are these: 50 mg/kg, two weeks.
Another data set deals with HDAC proteins (HDAC1-9). As to the kind of experiment: HDAC inhibitory assay, isozyme panel. The conditions noted are these: in vitro HDAC inhibitor screen.
Data set [3] has as its system MDA231 cells. As to the kind of experiment: Metabolite secretion, GC-MS. The conditions noted are these: MDA231, 10 μM, 24 hrs. It counts as cell-based. The procedure:
Media was centrifuged at 1,000×g to pellet cell debris and 5 μL of supernatant was extracted in 80% ice-cold methanol mixture containing isotope-labeled internal standards for lactate (Cayman Chemicals CLM-1579), and pyruvate (Cayman Chemicals CLM-2440) and evaporated to dryness.
(§3) Metabolite derivitzation using MOX-tBDMS was conducted as previously described (49).
(§4) Derivatized samples were analyzed by GC-MS using a DB-35MS column (30 m×0.25 mm i.d.×0.25 μm) installed in an Agilent 7890B gas chromatograph (GC) interfaced with an Agilent 5977B mass spectrometer as previously described (50) and corrected for natural abundance using in-house algorithms adapted from (51).

Data set [4] has as its system mitochondrial membrane potential. As to the kind of experiment: Mitochondrial membrane potential (TMRE). It counts as cell-based. The conditions noted are these: 10 μM. The method, then:
Apoptosis was assessed by Annexin V/propidium iodide (Biolegend, 640906, Sigma P4170) staining using LSRII Biosciences, Facscanto. Cell viability was detected by CellTiter-Glo® (My Bio, G3582) according to the manufacture's protocol. Mitochondrial membrane potential was measured by adding Tetramethylrhodamine, ethyl ester (TMRE) (Biosciences, T669) at 20 nM for 30 minutes at 37° C. and assessed by flow cytometry with FACS CANTO II.

In data set [5] the test system is MDA231 cells. As to the kind of experiment: Migration and invasion assays (Boyden chamber). The class given is cell-based. The following applies: MDA231, 30 μM. The method, then: (§5) Cell migration and invasion experiments were performed using the Boyden Chamber Assay (Corning, CLS3464). 500,000 cells were seeded in serum free RPMI media (Thermo Fisher Scientific, 118757093) in the upper chamber and RPMI media containing 10% FBS (Sigma, F2442), was placed in the lower chamber. For invasion experiments the upper chamber was coated with Matrigel™ (Corning). […] Following 24 hrs (migration experiments) or 48 hrs (invasion experiments) treatment cells were stained with 0.5% crystal violet.

For data set [6], the system named is BT549 cells. As to the kind of experiment: Migration and invasion assays (Boyden chamber). The conditions noted are these: BT549, 30 μM. The class given is cell-based. The procedure: as §5
The test system of a further data set is MDA231. As to the kind of experiment: 3D spheroid formation in Matrigel. It counts as cell-based. The following applies: MDA231, 30 μM. The procedure:
Individual wells of a 6 well plate was coated with Matrigel™ (Corning) and placed in an incubator at 37° C. for 30 min. 50,000 cells/ml were resuspended in RPMI supplemented with 2% Matrigel™ Cells were placed in Matrigel™ coated wells for 30 min at 37° C., after which RMPI supplemented with 2% Matrigel™ was added to the cultures. […] Cells were maintained in culture for 7 days in an incubator at 37° C., 5% CO2 and cultures imaged every 24 hrs with Nikon ECLIPSE TE300.

The test system of data set [7] is 4T1 tumors. As to the kind of experiment: Tumor metabolites by GC-MS, 4T1 syngeneic breast cancer model. It counts as in vivo, mouse. The conditions noted are these: 4T1 model. The procedure:
Following 7 or 14 days treatment mice was fasted for 6-8 h prior to euthanasia and tumor harvest. Tumor metabolites were extracted in methanol/water/chloroform using the Qiagen TissueLyser LT, evaporated to dryness and resuspended in 80% methanol. The equivalent volume for 5 mg of tissue was further extracted in 80% ice-cold methanol mixture containing isotope-labeled standards for lactate (Cayman Chemicals CLM-1579), and pyruvate (Cayman Chemicals CLM-2440) and evaporated to dryness.
as §3, §4

Another data set has as its system GAPDH. As to the kind of experiment: GAPDH activity assay. The class given is cell-based. The procedure: as §1
Data set [8] has as its system MDA231 cells. As to the kind of experiment: U-13C6-glucose stable isotope tracing, GC-MS. The class given is cell-based. The conditions noted are these: MDA231, 10 μM, 24 hrs. The method, then:
Cells were seeded in 12-well tissue culture plates and left to adhere overnight. […] Following treatment, media was removed and cells were washed with 1×PBS before adding basic RPMI (Thermo Fisher Scientific, 11879020) supplemented with dialyzed FBS (Gibico 26400044) and either 10 mM of [U]-^13C6 labelled glucose (Cambridge Isotopes CLM-1396) for 30 minutes or tracing media containing 10 mM 1,2-^13C labelled glucose (Cambridge Isotopes CLM-504) for 12 h. Cellular metabolites were extracted after a brief wash with 0.9% ice-cold saline solution using a methanol/water/chloroform extraction method, as previously described (48).
as §3, §4

The test system of another data set is Histone 4 (H4). As to the kind of experiment: Acetylation of Histone 4 in cells. It counts as cell-based. The procedure: (§6) Protein samples for Western blot analysis were separated by 12% SDS-PAGE gels. Following separation on the gel, proteins were transferred using electrophoresis onto a nitrocellulose membrane and blocked at room temperature shaking in 5% milk (w/v) in TBS containing 0.5% Tween-20 (TBS-T). Membranes were incubated overnight at 4° C. with primary antibody. HRP tagged secondary antibodies were diluted in TBS-T/5% milk for 1 hr. Antibody reactive bands were detected with LAS-3000, Fujifilm. Fluorescent secondary antibodies were diluted 1:10000 in TBS-T/5% milk for 1 hour. Antibody reactive bands were detected with the Odyssey® infrared imaging system (LI-COR Biosciences). IRDye® 680LT and 800CW-Infrared Dye coupled anti-rabbit or anti-mouse (LI-COR Biosciences).

Data set [9] concerns 4T1 tumors. As to the kind of experiment: 4T1 syngeneic breast mouse model. The following applies: 50 mg/kg, two weeks, 4T1 model.
Data set [10] has as its system BT549 cells. As to the kind of experiment: Extracellular flux assay (OCR). It counts as cell-based. The following applies: BT549, 10 μM. The method, then:
as §2

For a further data set, the system named is MDA-231 cells. As to the kind of experiment: Extracellular flux assay (OCR). It counts as cell-based. The conditions noted are these: MDA-231, 10 μM. The method, then: as §2
Data set [11] relates to aldolase. As to the kind of experiment: Immunoprecipitation with acetyl beads. The class given is cell-based. The conditions noted are these: 10 μM, 24 hr treatment. The procedure: Cell lysates were prepared in lysis buffer (50 mM Tris-HCL PH 7.4, 150 mM NACL, 1% Triton x100, 1 mM EDTA and protease inhibitors). Protein was quantified and 500 μg of protein was added to 20 μl of A-agarose beads (Pierce, 20333) and allowed to rotate for 1 hr at 4° C. and 3000 rpm. Proteins were centrifuged for 3 minutes at 3000 rpm at 4° C. Supernatant was added to 500 μl of lysis buffer, […] pan-specific anti-acetylated lysine beads (Immunechem, ICP0388) or control agarose beads, and made up to 1 ml with dH2O. Samples were rotated overnight at 4° C. at 3000 rpm. Samples were washed with lysis buffer and were resuspended in 30 μl of 2×IP Dye with BME and boiled and ran out on 12% SDS-PAGE gel.

The subject of a further data set is acetylated tubulin. As to the kind of experiment: Western blot of acetylated tubulin in cells. The class given is cell-based. The following applies: increasing doses. The procedure:
as §6
A general note: Immunoblotting shows a protein as a band on a membrane.

The format of data set [12] is in vivo. The following applies: 50 mg/kg, while on treatment.

For `O=C(CSC1=NC2CCCCC2N1)N1CCOCC1` (stereo not drawn) [BAS-2], the aldolase enzymatic activity entry in the data set on aldolase [1] (BT-549 cells) is given as “dose-dependent significant reduction in aldolase enzymatic activity”; in the data set with aldolase [1] (MDA231 cells, 24 hrs) it was “dose-dependent significant reduction in aldolase enzymatic activity”. In the data set on MCF10a cells, the “glycolysis and glycolytic capacity (ECAR)” value is reported as “did not affect the glycolysis or glycolytic capacity”. Moreover, the “glycolytic capacity (ECAR)” value in the data set on MDA231 cells [2] is “reduced the glycolytic capacity”. Also, the “glycolysis and glycolytic flux” value in the data set with 4T1 cell line was “decrease in glycolysis and glycolytic flux”. Further, the tumor volume result in the data set with MMTV-pyMT tumors is given as “reduction in tumor volume”. In the data set on HDAC proteins (HDAC1-9), the HDAC isozymes inhibited result was “inhibited only the isozyme HDAC6”. The “secretion of lactate and pyruvate” value with MDA231 cells [3] is “significant reduction in the secretion of lactate and pyruvate”. In addition, the mitochondrial membrane potential entry in data set [4] was “no loss of mitochondrial membrane potential”. The “cell migration and invasion” value in the data set with MDA231 cells [5] is “significant reduction in both cell migration and invasion”; in the data set on BT549 cells [6], “significant reduction in both cell migration and invasion”. Besides, in the data set on MDA231, the 3D spheroid formation entry is on record as “reduction in 3D spheroid formation”. Further, the intratumoral lactate result in the data set on 4T1 tumors [7] is given as “trend towards decreased intratumoral lactate”. Besides, in the data set on 4T1 tumors [7], the intratumoral pyruvate levels result was “significant reduction in intratumoral pyruvate levels”. Moreover, the GAPDH activity entry in the data set with GAPDH (BT-549) and in the data set on GAPDH (MDA-231) was “dose dependent reduction in GAPDH activity” in each case. The “carbon incorporation from glucose into PEP, 3PG, lactate and pyruvate” value in the data set with MDA231 cells [8] is “significant reduction in carbon incorporation from glucose”. In the data set with Histone 4 (H4), the “acetylation of Histone 4 (H4)” value was “did not cause an increase in acetylation of Histone 4”. Also, the “tumor weight and tumor volume” value in the data set with 4T1 tumors [9] was “reduction in tumor weight and tumor volume; also recorded: reduce tumor volume and weight”. Besides, the “OCR, basal respiration and ATP production” value with BT549 cells [10] and in the data set with MDA-231 cells was “did not observe any significant changes in OCR” in each case. Also, in the data set with aldolase [11], the acetylation of aldolase result was “increased the acetylation of aldolase”. Moreover, the acetylated tubulin level result with acetylated tubulin is listed as “increase in the acetylated tubulin”. The “toxicity as assessed by weight of the mice” value in data set [12] is “did not detect any overt evidence of toxicity”.

The values are drawn from patent publication US20250368608A1, “SELECTIVE HDAC6 INHIBITOR” (ROYAL COLLEGE OF SURGEONS IN IRELAND, priority 2021, published 2025).
